Here are results for 74 compounds from PubChem BioAssay AID179 (DTP/NCI, 2004).

“And” between values parts separate entries of the source, which are not always exact repeats. Equal entries are not always repeated. The source made the active and inactive calls.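 Rule for the calls: active = compounds giving half or more protection of infected cells from virus-caused growth loss, again on retest; inactive = the rest.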

This experiment has as its system CEM cells HIV-1 protection, formazan growth assay. Nature of the experiment: NCI AIDS Antiviral Assay. The note with it: for IC50: measured here: growth of uninfected CEM cells. Put shortly: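 Human CEM cells, uninfected and HIV-1-infected, exposed to five drug concentrations; growth measured by soluble formazan assay and scored as percent protection from infection, with protecting compounds retested.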

One may read the EC50 as the concentration that produces a half-maximal response. Broadly, the IC50 is the concentration at which inhibition is half-maximal. A low value points to inhibition by little substance. On to `Cc1nc2ccccc2n(CC2CCCN3CCCC[C@H]23)c1=O` (some centres not stated), for which the EC50 is over 200 µM and the IC50 is over 200 µM.

Take `O=C(O)c1cc(N=C=S)ccc1-c1c2ccc(=O)cc-2oc2cc(O)ccc12`: the EC50 was 43.7 µM and 44.7 µM; the 50% inhibitory concentration (IC50) was 316 µM and > 100 µM.

With `O=C(O)C1CC2C3CC(C(=O)O)C(C3)C2C1` (configuration not stated), the EC50 is over 200 µM and the IC50 is over 200 µM.

For the compound `Cc1cccc(NC(=O)/C(=N\N)C(c2cnc3ccc([N+](=O)[O-])cc3n2)[N+](=O)[O-])c1C` (configuration not stated), the EC50 was over 85.1 µM and the half-maximal inhibitory concentration (IC50) came to 66.1 µM.

As for `CN1CC(=O)NC2C(=CN(Cc3ccccc3)c3ccccc32)C1=O` (configuration not stated), the EC50 is over 200 µM and the half-inhibitory concentration (IC50) is over 200 µM.

Turning to `CN(C)c1ccc(/C=C(\NC(=O)c2ccccc2)c2nc3ncncc3[nH]2)cc1`, the outcome was inactive.

Turning to `N#Cc1cc([N+](=O)[O-])ccc1NC(=O)C(=O)Nn1c(=S)[nH]c2ccccc2c1=O`, the outcome was inactive.

For `O=C1/C(=C/c2ccc(Cl)cc2)CCc2ccccc21`, the EC50 was over 19.5 µM and the concentration for half-maximal inhibition (IC50) is over 19.5 µM.

With `Cc1ccc(S(=O)(=O)N2CCC(C(=O)O)=Cc3c2[nH]c(=O)n(-c2ccccc2)c3=O)cc1`, the EC50 is over 288 µM and the half-inhibitory concentration (IC50) was over 288 µM.

Turning to `COc1cc2c(c3oc(=O)cc(-c4ccccc4)c13)C(=O)[C@H](C)[C@@H](C)O2`, the EC50 is over 200 µM and the IC50 was over 200 µM.

On to `CCN(CC)CCOCCn1c2c(c3ccccc31)CCCC2`, for which the EC50 is over 200 µM and the IC50 was found to be 30.9 µM.

As for `COC(=O)C(=O)C(C(=O)C=C(C)C)C(=O)C(=O)Nc1cccc(C(C)=O)c1` (configuration not stated), the EC50 is over 251 µM.

For the compound `CCOC1=C2C(C)(CCC3[C@@]4(C)C=CC(=O)C(C)(C)C4CC(O)[C@@]23C)C(c2ccoc2)C1=O` (some centres not stated), the EC50 was over 79.4 µM and the IC50 turned out to be 17.8 µM.

Regarding `CCCCCCC(=O)CC(=O)C(=O)Nc1ccccc1C`, the EC50 was over 25.1 µM and the concentration for half-maximal inhibition (IC50) was over 25.1 µM.

With `CCOC(=O)c1[nH]n(-c2ccccc2)c(=O)c1C=NC(=S)C(N)=S`, the EC50 was over 200 µM and the IC50 is 33.9 µM.

For `CCOC(=O)/C(=N\O)C1=CSC2=NNC(C)(C)N12`, the EC50 is over 200 µM and the IC50 turned out to be 115 µM.

Consider `O=S(=O)(c1ccccc1)[C@H]1[C@@H]2O[C@@H]2C[C@@H]1O`, for which the EC50 was over 1050 µM and the IC50 was found to be 55 µM.

Regarding `CCC(C)(C)c1ccc(OP(=S)(S)Oc2ccc(C(C)(C)CC)cc2)cc1`, the EC50 was over 200 µM and the half-inhibitory concentration (IC50) is 37.2 µM.

On to `Clc1ccc(COC(Cn2ccnc2)c2ccc(Cl)cc2Cl)cc1` (configuration not stated), for which the EC50 was over 200 µM and the concentration for half-maximal inhibition (IC50) amounted to 34.7 µM.

Consider `CC(C)SC(NC(=O)C1C(C)(C)CCC1(C)C)C(=O)O` (configuration not stated), for which the EC50 is over 200 µM and the IC50 is over 200 µM.

As to `CCOC(=O)C1CC2OC2CC1C(=O)OCC` (configuration not stated), the EC50 is over 200 µM and the IC50 is over 200 µM.

Regarding `c1cc2cc(c1)CNCCNCCNCc1cccc(c1)CNCCNCCNC2`, the EC50 was over 138 µM and the IC50 is 60.3 µM.

`CC[C@H](CCCCC1CC[C@@H]2CC(=O)C[C@H]12)OC` (some centres not stated): the EC50 is over 200 µM and the 50% inhibitory concentration (IC50) is over 200 µM.

In the case of `CCOC(=O)C1=C(O)c2ccc(C)cc2C(=O)C1=O`, the EC50 is over 955 µM and the IC50 was 324 µM.

Consider `COC(=O)C1(COCc2ccccc2)CCCC2OC21` (configuration not stated), for which the outcome was inactive.

`CC12c3c4ccc(C=O)c3Oc3ccc(C=O)c(c31)Oc1ccc(C=O)c(c12)O4`: the EC50 is over 25.1 µM and the concentration for half-maximal inhibition (IC50) amounted to 13.5 µM.

With `Nc1ccc(/C=C/c2ccc3ncccc3c2)cc1`, the EC50 is 0.0631 µM and the IC50 was over 200 µM.

`Nc1[nH]c(=O)nc2snnc12`: the EC50 was over 200 µM and the IC50 amounted to 4.79 µM.

For `NCCCC(N)(C(=O)O)C(F)F` (configuration not stated), the EC50 is over 200 µM and the IC50 amounted to 129 µM.

Take `OC1C#CCSCC#C/C=C\1` (configuration not stated): the EC50 is over 200 µM and the IC50 came out at 10.5 µM.

`CCOC(=O)NC(OC)(C(F)(F)F)C(F)(F)F`: the EC50 is over 200 µM and the IC50 is over 200 µM.

Consider `COC(=O)C1=C2Nc3ccccc3[C@@]23CCN(Cc2ccccc2)C3C[C@H]1c1ccoc1` (some centres not stated), for which the EC50 is over 29.5 µM and the IC50 was over 29.5 µM.

For the compound `COc1ccc(N2C(=O)C3c4[nH]c5ccccc5c4C4CCC(C(C)(C)C)CC4C3C2=O)c(C)c1` (configuration not stated), the EC50 is over 200 µM and the 50% inhibitory concentration (IC50) is over 200 µM.

On to `COc1ccc2cc1Oc1ccc(cc1)C[C@@H]1c3cc(c(OC)cc3CCN1C)Oc1c(OC)c(OC)cc3c1[C@@H](C2)N(C)CC3`, for which the result was inactive.

As for `COc1ccc2c(c1)-c1nc(=S)n(CCCN(C)C)c3ccc([N+](=O)[O-])c(c13)N2`, the EC50 was over 2 µM and the IC50 turned out to be 0.389 µM.

Consider `COC(O)C12OC3CO[Si](C(C)C)(C(C)C)O[Si](C(C)C)(C(C)C)OC3C1Oc1nc(=O)ccn12` (configuration not stated), for which the EC50 was over 200 µM and the IC50 came to 30.2 µM.

Take `CC(=O)NNc1nc(C)c(C(=O)NNC(=O)C(=O)Nc2c(C)cccc2C(C)(C)C)s1`: the EC50 is over 151 µM and the IC50 amounted to 26.3 µM.

On to `CN=C(n1ccnc1)n1ccnc1`, for which the EC50 was over 200 µM and the concentration for half-maximal inhibition (IC50) was over 200 µM.

As to `O=C1CCCC(=O)N2c3ccc(cc3)CSCCSCc3ccc(cc3)N12`, the outcome was inactive.

With `NC(C(=O)O)C(CC(=O)O)c1ccccc1` (configuration not stated), the EC50 was over 200 µM; the IC50 was 112 µM and > 200 µM.

For `CC(=O)OC1CC2(C)C(OC(C)=O)CC1C2(C)C` (configuration not stated), the EC50 was over 200 µM and the half-maximal inhibitory concentration (IC50) is over 200 µM.

As for `CC(NNC(=O)c1ccncc1)c1ccc(Cl)c(Cl)c1` (configuration not stated), the EC50 is over 200 µM and the IC50 stood at 107 µM.

Consider `O=c1c2ccccc2oc2ccccc12`, for which the EC50 was over 26.3 µM and the IC50 was over 26.3 µM.

Turning to `CC1=NNC(=O)C1C1C(=O)NN=C(c2c[nH]c3ccccc23)C1Br` (configuration not stated), the EC50 is over 200 µM and the IC50 turned out to be 95.5 µM.

On to `CSc1c(S(C)=O)c2ccccc2n1C` (configuration not stated), for which the EC50 was over 200 µM and the half-inhibitory concentration (IC50) was over 200 µM.

Turning to `C1CCCCC2(CCCCCCCCC3(CCC1)OCCO3)OCCO2`, the EC50 was over 200 µM and the IC50 was over 200 µM.

With `CCC1(N=[N+]=[N-])C(=O)Nc2cc(C)ccc2C1=O` (configuration not stated), the EC50 is over 200 µM and the IC50 is over 100 µM.

On to `CC(=O)OCC1OC(n2cnc([N+](=O)[O-])c2Br)C(OC(C)=O)C1OC(C)=O` (configuration not stated), for which the EC50 was over 200 µM and the half-inhibitory concentration (IC50) stood at 11.7 µM.

In the case of `CCCC(=O)Nc1cc2c3c(c1)CCCN3CCC2`, the EC50 was over 200 µM and the IC50 came to 79.4 µM.

With `CC1(C)C2(C(N)=O)C(=O)NC(=O)C12C(=O)O` (configuration not stated), the EC50 is over 200 µM and the half-inhibitory concentration (IC50) is over 200 µM.

With `CC(Nc1ccc(S(=O)(=O)N=C(N)N)cc1)c1c2ccccc2nc2ccccc12` (configuration not stated), the outcome was inactive.

Take `Cc1ccc(OP2(=O)Nc3ccccc3S2)cc1` (configuration not stated): the EC50 is over 468 µM and the half-inhibitory concentration (IC50) came to 25.7 µM.

For the compound `C=C1CC(Cn2cc(Br)c(=O)[nH]c2=O)(c2ccc(Br)cc2)OC1=O` (configuration not stated), the EC50 was over 20 µM and the IC50 came to 0.759 µM.

Take `O=C(Cn1c(C(=O)c2ccccc2)nc2ccccc21)c1ccccc1`: the EC50 is over 200 µM and the IC50 amounted to 7.41 µM.

Turning to `CC1=C(C(=O)NNC(=O)C[n+]2ccccc2)CC(C(=O)NNC(=O)C[n+]2ccccc2)=C(C)N1`, the EC50 was over 200 µM and the half-inhibitory concentration (IC50) is over 200 µM.

Turning to `COc1cc2c(cc1OC)C1=NN(c3ccccc3)C(=O)C1CC2` (configuration not stated), the EC50 was over 8.51 µM and the IC50 was over 8.51 µM.

In the case of `CC(=O)N1N=C(c2ccc(N=Nc3c(C)nn(-c4ccccc4)c3C)cc2)OC1c1ccc(Cl)cc1` (configuration not stated), the EC50 is over 18.6 µM and the half-maximal inhibitory concentration (IC50) is over 18.6 µM.

Turning to `CC(=O)[O-].CC(=O)[O-].O=C(N/N=C/c1cc(Cl)cc(Cl)c1O)c1ccncc1.[Cu+2]`, the outcome was inactive.

For the compound `O=C(O)c1cc(O)c2c(c1)C(=O)c1cc(O)cc(O)c1C2=O`, the result was inactive.

With `O=c1c2cc3ccccc3n2c(=O)c2cc3ccccc3n12`, the EC50 was over 5.01 µM and the IC50 is over 5.01 µM.

As to `CCCCOP(=O)(/C=C\c1ccccn1)OCCCC`, the EC50 is over 120 µM and the IC50 is over 120 µM.

Turning to `Cc1ccc(Nc2nc(C)c(C(=O)C/C(=N/NC(N)=S)C(=O)Nc3cc(Cl)cc(Cl)c3)s2)cc1`, the EC50 was over 200 µM and the half-maximal inhibitory concentration (IC50) is 178 µM.

On to `CSCCCNC(=O)c1csc(-c2csc(C(CNC(=O)OC(C)(C)C)CNC(=O)OC(C)(C)C)n2)n1`, for which the EC50 is over 200 µM and the concentration for half-maximal inhibition (IC50) stood at 22.4 µM.

Take `O=c1[nH]c(=O)c2[nH]c(=O)[nH]c(=O)c2[nH]1`: the EC50 was over 200 µM and the IC50 is over 200 µM.

For `O=C(O)c1nc(-c2ccc(Cl)c(Cl)c2)nc2ccc(Cl)cc12`, the result was inactive.

Regarding `CCN(CC)CCOC(=O)c1ccc(N=NC2Sc3nc4ccccc4n3C2=O)cc1` (configuration not stated), the outcome was inactive.

On to `NC(=O)Cn1c(=O)[nH]c(=O)c2[nH]cnc21`, for which the EC50 is over 174 µM and the half-inhibitory concentration (IC50) is over 174 µM.

Regarding `O=C1CC(C(OCc2ccccc2)C(OCc2ccccc2)C(COCc2ccccc2)OCc2ccccc2)CC(=O)N1` (configuration not stated), the EC50 was over 200 µM and the concentration for half-maximal inhibition (IC50) is over 200 µM.

Consider `C=CCN1CCC(c2cc(C(=O)OCC)[nH]c2-c2cc(C)no2)C1=O` (configuration not stated), for which the EC50 is over 200 µM and the IC50 is over 200 µM.

Take `Oc1ccc2c(c1)CCc1c-2n(CCN2CCOCC2)c2ccc(O)cc12`: the EC50 was over 200 µM and the IC50 amounted to 14.8 µM.

`Cn1cc(NC(=O)c2cc(NC(=O)CN=C(N)N)cn2C)cc1C(=O)NCCC(=N)N` had a half-maximal effective concentration (EC50) of over 200 µM and a half-maximal inhibitory concentration (IC50) of over 200 µM.

For the compound `C/C(CC(O)(C(F)(F)F)C(F)(F)F)=N\N`, the EC50 is over 200 µM and the IC50 is over 200 µM.

For `Nc1ncnc2c1ncn2C1COC(CO)C1CO` (configuration not stated), the EC50 is 87.1 µM and the half-inhibitory concentration (IC50) is over 200 µM.

Turning to `Cc1cc2c(cc1C)C(=O)/C(=N/Nc1ccc(F)cc1)CCO2`, the EC50 is over 200 µM and the half-maximal inhibitory concentration (IC50) was 178 µM.
